{
  "source": "patent US11376271B1",
  "about": "“Methods of ameliorating the effects of alcoholic liver damage” (FULGENT LIFE INC., priority 2021, dated 2022)",
  "key": {"hepatocyte AML12 cells": {"system": "hepatocyte AML12 cells", "assay": "NADH dose-response and time course of NAD+ levels in AML12 cells", "assay_type": "cell-based", "experimental": "Also, cells were cultured as follows.\nA dose-response curve was also determined for hepatocyte AML12 cells. These cells were treated with rising concentrations of NADH for 3 h. […] (n=3). *, p<0.01; **, p<0.001 vs Control.\nTime course studies for NADH action were also carried out. AML12 cells were incubated with NADH for various incubation times (0-12 hr) and then harvested, and the NAD+ levels were assessed. […] (n=3). *, p<0.01; **, p<0.001 vs Control."}, "[1]": {"system": "C2C12, Neuro2a and AML12 cells", "assay": "Toxicity: total cell number / trypan blue count after 24 h", "assay_type": "cell-based", "settings": "1 mM", "experimental": "The sharp increase of NAD+ concentration indicates a possible toxicity to cells. To assess this toxicity, C2C12, Neuro2a and AML12 cells were treated with 1 mM NADH for 24 hours, and then the total cell numbers were measured. […] The cells were stained with trypan blue and then counted with a hemocytometer. […] The Annexin V/PI staining kit and Caspases3/7/SYTOX dead cell staining kit (Life Technologies) were used and cells were counted with a BD FACSCelesta™ flow cytometer. The quadrants of apoptotic cells, necrotic cells and living cells were identified and quantified according to the manufacturer's instructions.\nTo examine apoptotic markers, AML12 cells were stained for Annexin V and Caspase 3/7, and cells were counted with a flow cytometer. […] Quadrants with live cells (brown), necrotic cells (gray) and apoptotic cells (blue) were quantified."}, "AML12 cells": {"system": "AML12 cells", "assay": "Apoptosis markers Annexin V and Caspase 3/7 by flow cytometry", "assay_type": "cell-based", "settings": "1 mM, 24 hours", "from_the_text": "To examine apoptotic markers, AML12 cells were stained for Annexin V and Caspase 3/7, and cells were counted with a flow cytometer. […] Data are expressed as mean±SD, n=3. Quadrants with live cells (brown), necrotic cells (gray) and apoptotic cells (blue) were quantified."}, "male C57BL/6J mice [2]": {"system": "male C57BL/6J mice", "assay": "Liver NAD+/NADH ratio after ethanol administration", "assay_type": "in vivo", "settings": "500 mg/kg intragastric 15 min before 8 ml/kg ethanol (40% w/v)", "experimental": "The ratio of NAD^+/NADH in the liver was then measured at different times after ethanol administration. The NAD^+/NADH ratios were detected using a NAD+/NADH Quantification Colorimetric Kit (ABIN411692) in compliance with the manufacturer's instructions. Fresh tissue lysate was prepared from snap cryo-frozen liver samples stored in […], and 20 mg liver was homogenized with NAD^+/NADH extraction buffer (400 μL). In order to quickly remove enzymes that may consume NADH, the samples were filtered through a 10 kD molecular weight cut-off filter before detection. […] Concentrations were calculated using an NADH standard curve."}, "male C57BL/6J mice [3]": {"system": "male C57BL/6J mice", "assay": "Plasma AST and ALT in acute alcohol-induced hepatotoxicity", "assay_type": "in vivo", "experimental": "Liver marker enzymes in plasma, such as aspartate transaminase (AST) and alanine aminotransferase (ALT), are known as sensitive biochemical markers of early liver damage. […] Six hours after treatment with alcohol, blood samples were taken to detect biochemical indexes. […] The control group was given the same amount of normal saline in place of the ethanol. […] The plasma levels of AST and ALT were determined by collecting blood samples in an anti-coagulant test tube and centrifuging at 1500 rpm for 10 minutes to attain plasma. The plasma AST and ALT activity was determined with a commercial kit (from Sigma-Aldrich) based on the manufacturer's instructions."}, "male C57BL/6J mice [4]": {"system": "male C57BL/6J mice", "assay": "Liver MDA and SOD after acute alcohol ingestion", "assay_type": "in vivo", "settings": "500 mg/kg intragastric 15 min prior to 8 ml/kg ethanol; liver 6 h after alcohol", "experimental": "Six hours after treatment with alcohol, liver tissues were taken for determination of MDA and SOD. Liver samples were prepared with homogenization in cold isotonic saline. The homogenate (10%, w/v) was centrifuged at 4500 g for 10 minutes and the supernatant was used for biochemical analysis. The MDA, SOD and TG levels were determined with commercial kits (Abcam, #ab118970; Thermofisher, #EIASODC and Abcam, ab65336) according to the manufacturer's instructions. The results were normalized to the total protein determined by BCA Protein Assay Kit (Abcam, #ab102536) according to the manufacturer's instructions."}, "male C57BL/6J mice [5]": {"system": "male C57BL/6J mice", "assay": "Liver histopathology by Oil Red O staining", "assay_type": "in vivo", "settings": "500 mg/kg intragastric 15 min prior to 8 ml/kg ethanol", "experimental": "Liver histopathology was detected by Oil Red 0 staining. According to the standard operating procedure, some liver tissues were fixed for histopathological assessment. The other part of the liver was stored at −80° C. […] frozen sections were stained with Oil Red 0 to detect liver steatosis. The stained sections were examined by a 400× optical microscope. The level of VLDL in serum samples was examined with a Bio-Tek synergy2 Multiscan Spectrum (Botten Instruments Co.)."}, "male C57BL/6J mice [6]": {"system": "male C57BL/6J mice", "assay": "Liver triglyceride and serum VLDL (lipid metabolism)", "assay_type": "in vivo", "settings": "500 mg/kg intragastric 15 min prior to 8 ml/kg ethanol", "experimental": "Liver samples were prepared with homogenization in cold isotonic saline. The homogenate (10%, w/v) was centrifuged at 4500 g for 10 minutes and the supernatant was used for biochemical analysis. The MDA, SOD and TG levels were determined with commercial kits (Abcam, #ab118970; Thermofisher, #EIASODC and Abcam, ab65336) according to the manufacturer's instructions. The results were normalized to the total protein determined by BCA Protein Assay Kit (Abcam, #ab102536) according to the manufacturer's instructions. […] Liver histopathology was detected by Oil Red 0 staining. According to the standard operating procedure, some liver tissues were fixed for histopathological assessment. The other part of the liver was stored at −80° C. […] frozen sections were stained with Oil Red 0 to detect liver steatosis. The stained sections were examined by a 400× optical microscope. The level of VLDL in serum samples was examined with a Bio-Tek synergy2 Multiscan Spectrum (Botten Instruments Co.). To evaluate alcoholic liver injury, the index of liver lipid metabolism (i.e., the triglyceride (TG) level in liver tissue) and the activity of serum Very Low Density Lipoprotein (VLDL) were also measured in the mice treated as described above in connection with FIG. 9A. […] The data in both FIGS. 9A and 9B are expressed as mean±SD (n=8); *p<0.01 vs control; #p<0.01 vs alcohol exposure."}, "[7]": {"system": "mammalian cell lines (insulinogenic (MING), neuronlike (LN229), muscle-like (C2C12), and normal hepatocyte (AML12) cells)", "assay": "NAD+ levels in mammalian cell lines treated with NADH, NRH or NMN", "settings": "1 mM, 3 h; all cell lines", "method": "Also, cells were cultured as follows. LN229, Neuro2a, and C2C12 cells were grown in Dulbecco's modified Eagle's medium (DMEM) supplemented with 10% fetal bovine serum (FBS), 100 units/ml penicillin, and 100 μg/ml streptomycin. […] AML12 cells were cultured in a 1:1 mixture of DMEM high glucose/Ham's F-12 with I-glutamine and supplemented with 10% FCS, 15 mM HEPES, 40 ng/ml dexamethasone, 0.005 mg/ml human recombinant insulin, 5 ng/ml sodium selenite and 0.005 mg/ml transferrin (Sigma Aldrich).\nThe cells were seeded in 6-well plates until they reached approximately 80% confluence. […] The number of cells was counted by hemocytometer and trypan blue. The harvested cells were then pelleted at 3000×g for 3 min. After eliminating the residual medium, the cells were lysed with 7% perchloric acid to preserve NAD+, and then neutralized with NaOH (2 M) and K2HPO4 (500 mM)."}, "[8]": {"settings": "500 mg/kg intragastric 30 min prior to 8 ml/kg ethanol (40% w/v), blood 6 h after alcohol"}, "[9]": {"settings": "40% ethanol every 24 h for 3 days, then 500 mg/kg every day for three days"}},
  "data": [
    {"smiles": "NC(=O)C1=CN([C@@H]2O[C@H](COP(=O)(O)OP(=O)(O)OC[C@H]3O[C@@H](n4cnc5c(N)ncnc54)C(O)C3O)C(O)C2O)C=CC1", "note": "(some centres unmarked) [NADH, nicotinamide adenine dinucleotide (NAD)+hydrogen (H)]", "values": [
      {"measurement": "concentration of NAD+ relative to the control group", "setting": "hepatocyte AML12 cells; 50 μM NADH, 3 h", "value": "approximately 4 times"},
      {"measurement": "concentration of NAD+ relative to the untreated control group (saturation)", "setting": "hepatocyte AML12 cells; 500 μM NADH, 3 h", "value": 10, "unit": "times"},
      {"measurement": "time after which full NAD+ increasing effects were present", "setting": "hepatocyte AML12 cells; 1 mM NADH", "value": 3, "unit": "h"},
      {"measurement": "time at which NAD+ concentration-increasing effects appeared", "setting": "hepatocyte AML12 cells; 1 mM NADH", "value": 0.5, "unit": "h"},
      {"measurement": "NAD+ after 12 hours of treatment", "setting": "hepatocyte AML12 cells; 1 mM NADH, 12 h", "value": "remained at a high concentration"},
      {"measurement": "Trypan blue positive cells", "setting": "[1]", "value": "less than 5%"},
      {"measurement": "loss of cultured cells (total cell number)", "setting": "[1]", "value": "no obvious loss"},
      {"measurement": "Annexin V or caspase 3/7 apoptosis markers vs control", "setting": "AML12 cells", "value": "no significant changes"},
      {"measurement": "ethanol-induced decrease of liver NAD+/NADH redox ratio", "setting": "male C57BL/6J mice [2]", "value": "significantly inhibited this decrease"},
      {"measurement": "plasma ALT level, pre-treatment", "setting": "male C57BL/6J mice [3]; [8]", "value": "significantly reduce"},
      {"measurement": "plasma AST level, pre-treatment", "setting": "male C57BL/6J mice [3]; [8]", "value": "significantly reduce"},
      {"measurement": "plasma ALT level, treatment after alcohol exposure", "setting": "male C57BL/6J mice [3]; [9]", "value": "significantly reduce"},
      {"measurement": "plasma AST level, treatment after alcohol exposure", "setting": "male C57BL/6J mice [3]; [9]", "value": "significantly reduce"},
      {"measurement": "MDA content in the liver", "setting": "male C57BL/6J mice [4]", "value": "significantly reduce"},
      {"measurement": "SOD activity in the liver", "setting": "male C57BL/6J mice [4]", "value": "increase"},
      {"measurement": "degree of liver fatty degeneration (Oil Red O)", "setting": "male C57BL/6J mice [5]", "value": "noticeably decreased"},
      {"measurement": "liver TG level vs alcohol exposure alone", "setting": "male C57BL/6J mice [6]", "value": "decreased"},
      {"measurement": "liver index vs alcohol exposure alone", "setting": "male C57BL/6J mice [6]", "value": "decreased"},
      {"measurement": "serum VLDL level vs alcohol exposure alone", "setting": "male C57BL/6J mice [6]", "value": "decreased"},
      {"measurement": "induced NAD+ levels compared with NMN", "setting": "[7]", "value": "much higher than those induced by NMN"}
    ]}
  ]
}
